Data set [1] is described as follows: Mouse pharmacokinetics, unbound plasma and brain concentrations. The format is in vivo. To be noted: mice, 30 minutes after i.p. administration. The protocol:
Pharmacokinetic analyses were conducted as previously described ([Witkin et al., 2017]). Compounds were administered via intraperitoneal injection (in 5% glucose) 30 minutes prior to blood collection. Mice were anesthetized with 3% isoflurane (2 l/min), and blood was collected by cardiac puncture of the left ventricle. Blood was immediately transferred to EDTA tubes and centrifuged at 1000g for 10 minutes at 4°C; the supernatant was collected and frozen. Brains from each mouse were also dissected and snap-frozen on dry ice.
Brain samples were homogenized in three volumes of methanol/water [1:4 (v/v)] by weight. A 25-μl aliquot of each study sample, calibration standard, and control sample was added to a 96-well plate and mixed with 180 μl acetonitrile/methanol [1:1 (v/v)] containing internal standard. The samples were subsequently centrifuged, and the resulting supernatants were diluted 12.5-fold with methanol/water [1:1 (v/v)] prior to analyzing 10-μl aliquots by liquid chromatography–tandem mass spectrometry as previously described ([Bradley et al., 2017]).

Another data set deals with T1, human mAChR M4 (Homo sapiens, UniProt P08173).
T1 construct: purchased PerkinElmer; host or cells: CHO
T1 sequence (P08173 whole entry): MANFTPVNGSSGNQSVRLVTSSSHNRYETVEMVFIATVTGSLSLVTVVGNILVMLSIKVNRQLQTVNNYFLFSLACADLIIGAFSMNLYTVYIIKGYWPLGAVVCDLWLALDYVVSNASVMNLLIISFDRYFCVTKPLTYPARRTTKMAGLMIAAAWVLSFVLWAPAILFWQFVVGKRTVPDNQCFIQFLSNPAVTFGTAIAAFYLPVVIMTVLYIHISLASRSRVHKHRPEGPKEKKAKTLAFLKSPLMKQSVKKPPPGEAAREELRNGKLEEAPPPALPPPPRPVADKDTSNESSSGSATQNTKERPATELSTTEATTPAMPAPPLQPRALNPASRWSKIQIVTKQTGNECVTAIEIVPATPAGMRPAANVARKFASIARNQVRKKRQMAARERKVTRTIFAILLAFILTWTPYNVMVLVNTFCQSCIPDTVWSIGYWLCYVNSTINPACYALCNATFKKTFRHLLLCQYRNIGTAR
Kind of data set: [3H]-NMS competition binding, CHO membranes, M4. The protocol: (§1) For competition binding experiments at M1, M2, M3, M4, and M5 mAChRs, CHO membranes were purchased from PerkinElmer. All experiments were performed in assay buffer of the following composition: 20 mM HEPES, 100 mM NaCl, and 10 mM MgCl2, pH 7.5, and used 10 µg protein/well in a total assay volume of 1 ml using deep well blocks. […] All assay incubations were initiated by the addition of membrane suspensions and deep well blocks were shaken for 5 minutes to ensure complete mixing. Incubation was then carried out for 2 hours at 21°C. Binding reactions were terminated by rapid filtration through GF/A filters (PerkinElmer) presoaked with 0.5% (w/v) polyethylenimine for 1 hour. Filters were then washed three times with 1 ml ice-cold assay buffer.
(§2) Inhibition binding data were curve-fit using GraphPad Prism 6 to derive the potency (IC50) of the test compound. The equilibrium dissociation constant (KI) of the test compound was then calculated with the Cheng–Prusoff equation: KI = IC50/[1 + ([L]/KD)] using the KD value derived separately from saturation binding studies.

For another data set, the target named is T2, humanized M1 DREADD (Homo sapiens, UniProt P11229, A196G/Y106C).
T2 construct: expressed in transfected cells; host or cells: CHO Flp-In
T2 sequence (P11229 whole entry Y106C/A196G): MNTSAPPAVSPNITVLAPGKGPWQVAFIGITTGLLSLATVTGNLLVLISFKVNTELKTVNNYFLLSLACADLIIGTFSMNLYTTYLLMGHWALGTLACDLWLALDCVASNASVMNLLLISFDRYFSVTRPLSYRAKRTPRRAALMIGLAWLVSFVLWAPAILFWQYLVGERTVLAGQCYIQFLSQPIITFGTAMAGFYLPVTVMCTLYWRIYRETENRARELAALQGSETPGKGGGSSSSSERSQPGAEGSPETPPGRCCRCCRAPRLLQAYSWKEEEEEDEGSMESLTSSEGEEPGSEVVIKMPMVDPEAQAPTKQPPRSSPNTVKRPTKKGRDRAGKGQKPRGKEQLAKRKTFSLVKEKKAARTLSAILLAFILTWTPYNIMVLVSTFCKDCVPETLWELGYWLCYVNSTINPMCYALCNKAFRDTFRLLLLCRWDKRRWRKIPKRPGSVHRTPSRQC
Kind of data set: Equilibrium [3H]-NMS binding, CHO Flp-In cell monolayers, M1 DREADD. The protocol: (§3) Prior to the experiment, cells were washed with 100 μl phosphate-buffered saline. […] Binding was terminated by rapid aspiration followed by two washes with 200 μl ice-cold 0.9% NaCl. Bound radioactivity was determined by liquid scintillation (Ultima Gold; PerkinElmer, Boston, MA) counting. Nonspecific binding was determined in the presence of 10 μM atropine.
as §2

Data set [2] concerns the target T3, human M1 mAChR (Homo sapiens, UniProt P11229).
T3 sequence (P11229 1-460): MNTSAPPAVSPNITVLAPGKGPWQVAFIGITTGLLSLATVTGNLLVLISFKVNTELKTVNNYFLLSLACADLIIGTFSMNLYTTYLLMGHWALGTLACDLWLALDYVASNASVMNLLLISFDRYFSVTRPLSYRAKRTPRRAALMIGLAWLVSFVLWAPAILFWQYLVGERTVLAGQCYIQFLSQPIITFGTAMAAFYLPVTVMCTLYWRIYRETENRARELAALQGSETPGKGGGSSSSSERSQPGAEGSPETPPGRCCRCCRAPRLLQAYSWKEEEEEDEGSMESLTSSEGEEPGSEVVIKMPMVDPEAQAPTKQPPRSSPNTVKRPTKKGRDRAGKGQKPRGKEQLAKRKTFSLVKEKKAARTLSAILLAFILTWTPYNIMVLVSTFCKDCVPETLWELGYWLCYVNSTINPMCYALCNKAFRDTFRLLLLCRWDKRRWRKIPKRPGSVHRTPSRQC
Kind of data set: Equilibrium [3H]-NMS binding, CHO Flp-In cell monolayers, wild-type M1. Further details: expressed in transfected cells; host or cells: CHO Flp-In. The protocol: as §3, §2

In data set [3] the target is T3, human M1 mAChR. Kind of data set: IP1 accumulation after receptor alkylation with phenoxybenzamine (functional interaction with ACh).
The next data set has as its target T4, human M1 receptor (Homo sapiens, UniProt P11229).
T4 construct: expressed in transfected cells; host or cells: CHO Flp-In
T4 sequence (P11229 1-460): T3 sequence (P11229 1-460)
Kind of data set: ERK1/2 phosphorylation, CHO Flp-In human M1 cells. The format is cell-based. The protocol: CHO Flp-In cells stably expressing the human M1 receptor were seeded onto transparent 96-well plates at 20,000 cells/well and grown to confluence. Cells were serum starved overnight prior to the experiment. Prior to the stimulations, cells were washed with 100 μl phosphate-buffered saline and then incubated in serum free F12 medium at 37°C. Cells were stimulated with ligands for 5 minutes at 37°C in a final volume of 200 μl. The stimulations were terminated by rapid aspiration and addition of 50 μl lysis buffer supplemented with blocking reagent per the manufacturer’s instructions, followed by gentle agitation at room temperature for 30 minutes. Subsequently, 16 μl of this lysate was transferred to a 384-well white ProxiPlate (PerkinElmer) and incubated with 4 μl premixed antibody solution for 2 hours at room temperature.
For the analysis, all families of agonist curves at each pathway were globally fitted to the model with the parameters, basal, Em, and n shared between all agonists. For full agonists, the LogKA was constrained to a value of zero, whereas for partial agonists this was directly estimated by the curve fitting procedure; the Log(τ/KA) parameter was estimated as a unique measure of activity for each agonist.

Data set [4] addresses T3, human M1 mAChR. The conditions noted are these: 20 nM [^3H]-GSK1034702.
The next data set deals with T5, human mAChR M1 (Homo sapiens, UniProt P11229).
T5 construct: purchased PerkinElmer; host or cells: CHO
Kind of data set: [3H]-NMS competition binding, CHO membranes, M1. The protocol:
as §1, §2

The next data set concerns the target T6, M2 mAChR (Homo sapiens, UniProt P08172).
T6 construct: expressed in transfected cells; host or cells: CHO
Kind of data set: ERK1/2 phosphorylation, CHO cells, M2. Type of data set: cell-based.

For another data set, the target named is T7, wild-type M1 mAChR (Homo sapiens, UniProt P11229).
T7 construct: HA; expressed in transfected cells; host or cells: CHO Flp-In
Kind of data set: Receptor phosphorylation at serine 228, M1 wild type, CHO Flp-In cells. The format is cell-based.

The next data set addresses T8, M3 mAChR (Homo sapiens, UniProt P20309).
T8 construct: expressed in transfected cells; host or cells: CHO
Kind of data set: ERK1/2 phosphorylation, CHO cells, M3. The format is cell-based.

The test system of a further data set is humans. Further details: method as in Nathan et al., 2013. To be noted: ref Nathan et al., 2013; cited from earlier work.

T6 sequence (P08172 whole entry): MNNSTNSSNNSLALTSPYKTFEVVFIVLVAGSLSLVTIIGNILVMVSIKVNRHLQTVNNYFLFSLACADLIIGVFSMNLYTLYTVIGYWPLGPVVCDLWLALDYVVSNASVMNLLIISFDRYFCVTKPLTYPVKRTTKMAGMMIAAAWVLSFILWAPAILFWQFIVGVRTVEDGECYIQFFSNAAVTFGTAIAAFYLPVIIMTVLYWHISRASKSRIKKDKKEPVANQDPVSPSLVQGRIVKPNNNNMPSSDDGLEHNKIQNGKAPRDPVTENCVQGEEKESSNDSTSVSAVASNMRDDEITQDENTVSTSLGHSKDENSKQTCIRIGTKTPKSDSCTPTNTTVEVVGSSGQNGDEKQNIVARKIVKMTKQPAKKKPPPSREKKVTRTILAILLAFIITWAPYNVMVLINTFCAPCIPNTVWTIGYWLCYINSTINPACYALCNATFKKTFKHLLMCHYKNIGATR
T8 sequence (P20309 whole entry): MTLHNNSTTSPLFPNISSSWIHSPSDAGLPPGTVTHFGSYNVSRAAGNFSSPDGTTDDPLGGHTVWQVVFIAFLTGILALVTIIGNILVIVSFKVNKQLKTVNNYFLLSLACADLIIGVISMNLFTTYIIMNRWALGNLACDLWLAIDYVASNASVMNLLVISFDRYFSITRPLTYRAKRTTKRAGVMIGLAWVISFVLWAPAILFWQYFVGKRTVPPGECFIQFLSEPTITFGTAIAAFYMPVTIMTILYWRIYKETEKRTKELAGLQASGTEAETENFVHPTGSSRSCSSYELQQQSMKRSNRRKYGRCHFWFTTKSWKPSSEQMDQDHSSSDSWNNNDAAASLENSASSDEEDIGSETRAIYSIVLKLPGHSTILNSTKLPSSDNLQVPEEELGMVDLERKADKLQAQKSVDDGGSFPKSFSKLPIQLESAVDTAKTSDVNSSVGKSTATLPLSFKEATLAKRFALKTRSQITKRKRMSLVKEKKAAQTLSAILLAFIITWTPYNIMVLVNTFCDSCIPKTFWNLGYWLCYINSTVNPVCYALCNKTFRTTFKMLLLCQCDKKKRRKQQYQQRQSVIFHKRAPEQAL

`Cc1cc(F)c2[nH]c(=O)n(C3CCN(C4CCOCC4)CC3)c2c1` [GSK1034702, 7-fluoro-5-methyl-3-[1-(oxan-4-yl)piperidin-4-yl]-1H-benzimidazol-2-one]: in data set [1], the “free brain concentration versus dose” value is listed as “increase linearly with escalating doses”. Further, the Ki at human mAChR M4 was 2000 nM; at humanized M1 DREADD, 1000 nM; at human M1 mAChR [2], 316 nM; at human mAChR M1 it was 1000 nM. Further, the “inhibition of [^3H]-NMS binding” value at human M1 mAChR [2] ([^3H]-NMS 0.5 nM, CHO Flp-In cell monolayers) was “fully inhibited”. Besides, at human M1 mAChR [3], the Kb is 631 nM. In addition, the “agonist effect in IP1 accumulation after phenoxybenzamine” value at human M1 mAChR [3] (cells treated with 3 μM phenoxybenzamine) is reported as “no agonist effect”. Also, the “ERK1/2 Phosphorylation ΔLog10(τ/KA)” value at human M1 receptor (normalized to reference ligand ACh) was 0.1 ± 0.1. For the same molecule, on human M1 receptor (transduction coefficient, wild-type M1 mAChR), the “ERK1/2 Phosphorylation Log10(τ/KA)” value stood at 7.2 ± 0.1. In addition, the “displacement of specific [^3H]-GSK1034702 binding” value on human M1 mAChR [4] is “fully displaced”. In addition, the “functional activity in ERK1/2 phosphorylation” value was “partial agonist activity” at M2 mAChR and “devoid of activity” at M3 mAChR. Further, at wild-type M1 mAChR, the pSer228 immunoreactivity result is listed as “concentration-dependent increase”. Further, the adverse effects result in the data set with humans is given as “induced gastrointestinal adverse effects”. Moreover, the “effect on cognitive function” value in the data set with humans was “positive effects on cognitive function”.

By Ki is commonly meant a dissociation constant, usually derived from enzyme kinetics or from competition with a known ligand. A lower Ki goes with tighter binding.

The record behind these values is PMC5963591, “Bitopic Binding Mode of an M1 Muscarinic Acetylcholine Receptor Agonist Associated with Adverse Clinical Trial Outcomes” (Molecular Pharmacology, 2018).
